Results taken from patent publication US20020004500A1, “Vasopeptidase Inhibitors to treat isolated systolic hypertension” (priority 2000, published 2002).

How the values were obtained:
[1] = tested on: subjects with isolated systolic hypertension; experiment: Omapatrilat in subjects with isolated systolic hypertension: trough seated blood pressure, forced- and elective-dose titration versus placebo; type: in vivo, human; conditions: for Δtrough seated diastolic blood pressure / Δtrough seated systolic blood pressure: week 9, change from baseline, trough 24±3 hours post dose; for percentage of normalized subjects (trough seated systolic blood pressure less than 140 mm Hg): week 9
Protocol: Omapatrilat was studied in subjects with isolated systolic hypertension (seated systolic blood pressure 160-199 mm Hg and diastolic blood pressure less than 90 after 4 weeks of single-blind placebo lead-in). Both a forced-dose titration (at Week 1) and an elective-dose titration (at Week 9) design were used to compare the change from baseline, relative to placebo, in trough (24±3 hours post dose) seated systolic blood pressure after 9 weeks and 13 weeks of once-daily oral administration of 3 dose regimens of omapatrilat. Treatment regimens consisted of omapatrilat 10 mg lead-in maintained at 10 mg at week 1, electively titrated to 20 mg at week 9 for subjects with a seated systolic blood pressure greater than or equal to 140 mm Hg, or omapatrilat 20 mg lead-in maintained at 20 mg at week 1, electively titrated to 40 mg at week 9 for subjects with a seated systolic blood pressure greater than or equal to 140 mm Hg, or omapatrilat 20 mg lead-in increased to 40 mg at week 1, electively titrated to 80 mg at week 9 for subjects with a seated systolic blood pressure greater than or equal to 140 mm Hg. Placebo was mock titrated at weeks 1 and week 9.
429 subjects were randomized. The mean age was 67 years, and mean baseline blood pressure was 169/82 mm Hg. The primary efficacy objective was to compare the change from baseline, relative to placebo, in trough (24±3 hours post dose) seated systolic blood pressure after 9 weeks of once-daily oral administration of 3 dose regimens of omapatrilat.

neutral endopeptidase = experiment: Urinary atrial natriuretic peptide excretion rate in subjects with isolated systolic hypertension; type: in vivo, human; conditions: once daily 80 mg, at 24 hours after dosing
[2] = omapatrilat 10/10 mg once-daily oral
[3] = omapatrilat 20/20 mg once-daily oral
[4] = omapatrilat 20/40 mg once-daily oral

How did the “systolic and diastolic blood pressure reductions at trough versus placebo regimen” value ([1]; 10/10/20 mg, 20/20/40 mg and 20/40/80 mg once-daily for 13 weeks, predominately elderly subjects) turn out when `O=C(N[C@H]1CCSC2CCC[C@@H](C(=O)O)N2C1=O)C(S)Cc1ccccc1` (relative stereo) [Omapatrilat, [4S-[4α(R*), 7α, 10aβ]]-octahydro-4-[(2-mercapto-1-oxo-3-phenylpropyl)amino]-5-oxo-7H-pyrido[2,1-b][1,3]thiazepine-7-carboxylic acid] was run?
The value was “greater systolic blood pressure and diastolic blood pressure reductions at trough than a regimen of placebo”.

What about the “systolic blood pressure reductions versus placebo” value ([1]; Week 13, after elective titration) of the same molecule?
The value was “Additional small reductions in systolic blood pressure versus placebo”.

What about the “Δtrough seated diastolic blood pressure” value [1, 2] of the same molecule?
The value was −1.8.

And the “Δtrough seated systolic blood pressure” value [1, 2]?
Its value is −15.9.

And the “percentage of normalized subjects (trough seated systolic blood pressure less than 140 mm Hg)” value (shortened to “percentage of normalized subjects”) ([1]; omapatrilat 10/10 mg)?
The value was 28%.

And the “Δtrough seated diastolic blood pressure” value [1, 3]?
The value was −2.6.

What about the “Δtrough seated systolic blood pressure” value [1, 3] of the same molecule?
Its value is −23.1.

And the “percentage of normalized subjects” value ([1]; omapatrilat 20/20 mg)?
Its value is 51%.

What about the “Δtrough seated diastolic blood pressure” value [1, 4] of the same molecule?
The value was −4.6.

And the “Δtrough seated systolic blood pressure” value [1, 4]?
The value was −26.1.

What about the “percentage of normalized subjects” value ([1]; omapatrilat 20/40 mg) of the same molecule?
Its value is 47%.

What about the “systolic and diastolic blood pressure reductions versus placebo regimen” value ([1]; week 9, all 3 omapatrilat regimens) of the same molecule?
The value was “greater systolic and diastolic blood pressure reductions than the placebo regimen”.

What about the “urinary atrial natriuretic peptide excretion rate” value (neutral endopeptidase) of the same molecule?
The value was “persistent elevation”.
